From patent publication US20230110128A1, “USE OF ANTIBODY DRUG CONJUGATES COMPRISING TUBULIN DISRUPTING AGENTS TO TREAT SOLID TUMOR” (Seagen Inc., priority 2018, published 2023)
Entries after “also recorded” stand apart in the source; their conditions may differ. Non-standard residues stand in square brackets, D forms with d. Residues, ends and D or L forms follow the SMILES beside them. *: point of attachment. Dolaproine = CO[C@@H]([C@@H]1CCCN1)[C@@H](C)C(=O)O; Dil = CC[C@H](C)[C@H](NC)[C@@H](CC(=O)O)OC; X1 = C[C@@H](N*)[C@@H](O)c1ccccc1; NMeV = CN[C@H](C(=O)O)C(C)C

Tests used:
Format in all cases: cell-based
[1] = test system: BxPC3 and HPAFII tumor cells co-cultured with macrophages; assay: Cytokine and chemokine production in macrophage co-culture with treated BxPC3 and HPAFII cells; settings: BxPC3 and HPAFII co-culture supernatant 24 hours, ELISA, normalized to untreated
Method: Supernatant from the co-culture of macrophages and dying tumor cells was harvested 24 hours later and assayed for levels of cytokine and chemokine production by ELISA and normalized to macrophages that were co-cultured with untreated tumor cells.

[2] = test system: T-24 tumor cells co-cultured with macrophages; assay: Cytokine and chemokine production in macrophage co-culture with treated T-24 cells; settings: T-24 co-culture supernatant after 24 hours, ELISA, normalized to untreated
Method: T-24 (bladder) cells were treated with MMAE or an MMAE-containing ADC (ASG-22ME) for 48 hours and analyzed for ATP secretion. […] T-24 cells were also treated with MMAE, an MMAE-containing ADC (ASG22ME, Enfortumab vedotin), vincristine, and Paclitaxel for 24 hours. Cells were washed and harvested, and subsequently co-cultured with the enriched macrophages as above. Macrophages were harvested 4 days after co-culture and assayed for immune activation by flow cytometry. Level of antigen-presentation (as measured by frequency of MHCII-expressing macrophages) was quantified and normalized to macrophages that were co-cultured with untreated tumor cells. […] Supernatant from the co-culture of macrophages and dying T-24 tumor cells was harvested after 24 hours and assayed for levels of cytokine and chemokine production by ELISA and normalized to macrophages that were co-cultured with untreated tumor cells.

[3] = test system: MCF7 cells co-cultured with macrophages; assay: Cytokine and chemokine production in macrophage co-culture with treated MCF7 cells; settings: MCF7 co-culture supernatant 24 hours, ELISA, normalized to untreated
Method: (§1) MCF7 […] cells were treated with MMAE, an MMAE-containing ADC (anti-CD71 OKT9-1006), vincristine, and Paclitaxel for 24 hours. Cells were washed and harvested, and subsequently co-cultured with the enriched macrophages prepared above. Macrophages were harvested 4 days after co-culture and assayed for immune activation by flow cytometry. […] Supernatant from the co-culture of macrophages and dying MCF7 cells was harvested 24 hours later and assayed for levels of cytokine and chemokine production by ELISA and normalized to macrophages that were co-cultured with untreated tumor cells.

[4] = test system: Hep3b, Huh7, and JHH7 cells co-cultured with macrophages; assay: Macrophage costimulation/antigen presentation after co-culture with treated liver tumor cells; settings: macrophages harvested 4 days after co-culture; normalized to Paclitaxel-treated tumor cells
Method: (§2) Liver tumor lines Hep3b, Huh7, and JHH7 cells were treated with MMAE, Tubulysin M, vincristine, and Paclitaxel for 24 hours and analyzed for ATP secretion. […] Cells were washed and harvested, and subsequently co-cultured with enriched macrophages prepared as above. Macrophages were harvested 4 days after co-culture and assayed for immune activation by flow cytometry. Levels of costimulation (as measured by CD86 expression, JHH7) and antigen-presentation (as measured by frequency of MHCII-expressing cells, Hep3b, Huh7, and JHH7) were quantified and normalized to macrophages that were co-cultured with […]. […] Supernatant from the co-culture of macrophages and dying liver tumor cells was harvested 24 hours later and assayed for levels of cytokine and chemokine production by ELISA and normalized to macrophages that were co-cultured with untreated tumor cells.

[5] = test system: MCF7 cells co-cultured with macrophages; assay: Macrophage antigen presentation after co-culture with treated MCF7 cells; settings: MCF7 treated 24 hours; macrophages harvested 4 days after co-culture
Method: as §1

[6] = test system: PC-3 prostate tumor cells; assay: ATP secretion from PC-3 cells
Method: (§3) PC-3 prostate tumor cells were also treated with MMAE, Vincristine, or Paclitaxel. Supernatant was collected after 16 hours of treatment, and analyzed for ATP secretion. […] PC-3 cells were treated for 24 hours with an MMAE-containing ADC (SGN-LIV1A) or MMAE and harvested in RIPA buffer for western blot analysis (FIG. 3C).

MCF7 cells = assay: ATP secretion from MCF7 cells
[7] = test system: BxPC3 and HPAFII (pancreas) cells co-cultured with macrophages; assay: Macrophage antigen presentation after co-culture with treated pancreas tumor cells; settings: BxPC3 and HPAFII treated 24 hours; macrophages harvested 4 days after co-culture
Method: Macrophages were enriched from PBMCs from 2 healthy donors by adhering PBMCs to cell culture-grade plastic. Non-adherent cells were removed 24 hours later, leaving a population of cells enriched for macrophages.
BxPC3 and HPAFII (pancreas) cells were treated with MMAE, vincristine, and Paclitaxel for 24 hours. Cells were washed and harvested, and subsequently co-cultured with the enriched macrophages prepared above. Macrophages were harvested 4 days after co-culture and assayed for immune activation by flow cytometry. Level of antigen-presentation (as measured by frequency of MHCII-expressing cells) was quantified and normalized to macrophages that were co-cultured with untreated tumor cells.

[8] = test system: Hep3b, Huh7, and JHH7 cells; assay: ATP secretion from liver tumor lines; settings: Huh7, JHH7, 24 hours
Method: as §2

[9] = test system: Calu-1 cells co-cultured with macrophages; assay: Cytokine and chemokine production in macrophage co-culture with treated Calu-1 cells; settings: Calu-1 co-culture supernatant 24 hours, ELISA, normalized to untreated
Method: Supernatant from the co-culture of macrophages and dying tumor cells was harvested 24 hours later and assayed for levels of cytokine and chemokine production by ELISA and normalized to macrophages that were co-cultured with untreated tumor cells as described above.

MiaPaca2 cells = assay: ATP secretion from MiaPaca2 cells; settings: supernatant after 16 hours
Method: MiaPaca2 cells were treated with MMAE, Vincristine, or Paclitaxel. Supernatant was collected after 16 hours of treatment, and analyzed for ATP secretion.

BxPC-3 cells = assay: ATP secretion from BxPC-3 cells; settings: 17 hours
MDA-MB-468 cells = assay: ATP secretion from MDA-MB-468 cells; settings: supernatant after 48 hours
Method: MDA-MB-468 cells were treated with MMAE or an MMAE-containing ADC (ASG-22ME). Supernatant was collected after 48 hours of treatment, and analyzed for ATP secretion.

PC-3 cells = assay: Western blot analysis of ER stress in PC-3 cells; settings: 24 hours
Method: as §3

[10] = test system: MiaPaca-CHOP-luciferase cells; assay: CHOP-driven luciferase reporter assay of severe ER stress; settings: after 16 hours
Method: Severe ER stress leads to upregulation of CHOP, and initiates mitochondrial apoptosis. MiaPaca2 pancreatic tumor cells were engineered to express a CHOP-driven luciferase reporter system (purchased from Signosis, Inc.) that allows for quantifiable monitoring of severe ER stress. MiaPaca-CHOP-luciferase cells were treated with MMAE, vincristine, and Paclitaxel, and assayed for luciferase expression after 16 hours.

CC[C@H](C)[C@@H]([C@@H](CC(=O)N1CCC[C@H]1[C@H](OC)[C@@H](C)C(=O)N[C@H](C)[C@@H](O)c1ccccc1)OC)N(C)C(=O)[C@@H](NC(=O)[C@@H](NC)C(C)C)C(C)C [MMAE, monomethyl auristatin E] (H-[NMeV]V[Dil][Dolaproine]-X1)
Cytokine and chemokine production [1]: increase of the indicated cytokines and chemokines that was more robust than treatment with Paclitaxel | Cytokine and chemokine production [2]: increase of the indicated cytokines and chemokines that was more robust than treatment with Paclitaxel | Cytokine and chemokine production [3]: increase of the indicated cytokines and chemokines that was more robust than treatment with Paclitaxel | Immune-activation (CD86 expression, JHH7; MHCII-expressing cells, Hep3b, Huh7, JHH7) [4]: increase in immune-activation in 3/3 tumor cell lines that was more robust than Paclitaxel | Macrophage antigen presentation (frequency of MHCII-expressing macrophages) [5]: increase in macrophage antigen presentation | Release of ATP ([6]; FIG. 3D): release of ATP | ATP secretion ([6]; supernatant after 16 hours): robust ATP secretion | Secretion of ATP (MCF7 cells): increased secretion | Antigen-presentation (frequency of MHCII-expressing cells) [7]: increase in antigen-presentation in 1/2 tumor cell lines | ATP secretion (cell lines responding) [8]: potent ATP secretion from 3 of 3 cell lines evaluated | Cytokine and chemokine production [9]: increase of the indicated cytokines and chemokines that was more robust than treatment with Paclitaxel | ATP secretion (MiaPaca2 cells): robust ATP secretion | ATP secretion (BxPC-3 cells): equivalent levels of ATP secretion | ATP secretion (MDA-MB-468 cells): robust ATP secretion that was comparable to thapsigargin | ER stress (phosphorylation of IRE1 and JNK) (PC-3 cells): elicits ER stress (phosphorylation of IRE1 and JNK); also recorded: elicits ER stress (phosphorylation of IRE1 and INK) | Luciferase signal as a proxy of severe ER stress induction [10]: dose-dependent increase in luciferase signal
